One data set concerns the target T1, 5-Lipoxygenase (Homo sapiens, UniProt P09917).
T1 sequence (P09917 1-674): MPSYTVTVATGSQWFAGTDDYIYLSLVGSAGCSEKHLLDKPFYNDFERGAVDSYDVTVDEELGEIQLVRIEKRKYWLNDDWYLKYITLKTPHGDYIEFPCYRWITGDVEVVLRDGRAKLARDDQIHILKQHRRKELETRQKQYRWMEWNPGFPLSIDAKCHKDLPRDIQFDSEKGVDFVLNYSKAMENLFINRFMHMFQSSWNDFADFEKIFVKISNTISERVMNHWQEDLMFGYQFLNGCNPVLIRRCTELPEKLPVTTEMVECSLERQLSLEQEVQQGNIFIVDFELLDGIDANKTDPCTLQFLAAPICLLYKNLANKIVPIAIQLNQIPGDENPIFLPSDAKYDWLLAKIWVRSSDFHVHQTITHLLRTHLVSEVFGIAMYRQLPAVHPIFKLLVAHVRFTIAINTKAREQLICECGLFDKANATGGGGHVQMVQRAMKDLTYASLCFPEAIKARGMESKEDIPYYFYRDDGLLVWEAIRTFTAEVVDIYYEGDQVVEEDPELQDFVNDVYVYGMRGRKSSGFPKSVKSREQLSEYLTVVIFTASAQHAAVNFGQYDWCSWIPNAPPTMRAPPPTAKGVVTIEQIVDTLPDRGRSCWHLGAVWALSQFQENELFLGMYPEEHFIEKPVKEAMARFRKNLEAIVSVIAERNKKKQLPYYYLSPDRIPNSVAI
Nature of the data set: 5-Lipoxygenase inhibitory activity in vitro. Type of data set: biochemical.

Data set [1] in a line: Determination of plasma half-life after intravenous injection in rats. Type of data set: in vivo. The settings on record: 1.7 mL/kg solution via jugular cannula, HPLC, elimination phase; for half-life: rat, plasma, read-out: Plasma Halflife (converted). The procedure:
Rats were injected intravenously with a 1.7 mL/kg solution of test compound through a jugular cannula. Multiple blood samples were collected from the lateral tail vein using heparinized capillary tubes. Plasma was obtained by centrifugation and precipitation of proteins by 2 volumes of methanol was followed by centrifugation at 12000×G for 10 min. The supernatant was analyzed by HPLC using a C18 Adsorbosphere 7μm column and eluted with a mobile phase of varying amounts of acetonitrile and aqueous 8mM triethylamine acetate and 10mM acetohydroxamic acid with a flow rate of about 1mL/min and detection by UV spectroscopy. The quantitation of compounds was calculated using external standards. The halflife of a test compound was determined from the elimination phase of a graph of the log of the plasma concentration versus time.

The text below walks through data of patent US5026729A, “Lipoxygenase inhibiting compounds” (Abbott Laboratories, priority 1989, dated 1991).

As usually defined, the inhibition is the change of the read-out against control, counted positive when it falls. By IC50 is commonly meant the point on the concentration scale where inhibition reaches its midpoint. High values mean a need for much substance, low ones inhibition by little substance.

On to `CC(c1ccc(OCc2ccc(Cl)cc2)cc1)N(O)C(N)=O` (stereo not drawn) [F], for which the inhibition at 0.39 µM on 5-Lipoxygenase (0.39 μM, read-out: 5-Lipoxygenase Inhibitory Activity (percent inhibition)) is 72%. In data set [1], the half-life is 4.6 h.

For `CC(=O)N(O)C(C)c1ccc(OCc2ccc(F)cc2)cc1` (stereo not drawn) [C], on 5-Lipoxygenase, the IC50 was determined as 500 nM. Besides, in data set [1], the half-life is 5.6 h.

As for `CC(Oc1ccc(C(C)N(O)C(N)=O)cc1)c1ccc(F)cc1` (stereo not drawn) [Example 32], half-maximal inhibition against 5-Lipoxygenase (IC50) required 300 nM. Also, the half-life in data set [1] was 7.2 h.

The compound `CC(=O)N(O)C(C)c1ccc(OC(C)c2ccc(F)cc2)cc1` (stereo not drawn) [Example 31, N-Hydroxy-N-(1-(4-(1-(4-fluorophenyl)ethoxy)-phenyl)ethyl]acetamide] returned an IC50 on 5-Lipoxygenase of 500 nM. In data set [1], the half-life was 12.4 h.

`CC(Oc1ccc(C(C)N(O)C(N)=O)cc1)c1ccc(Cl)cc1` (stereo not drawn) [Example 34, N-hydroxy-N-[1-(4-(1-(4-chlorophenyl)ethoxy)-phenyl)ethyl]urea] had a concentration for half-maximal inhibition (IC50) at 5-Lipoxygenase of 200 nM. Further, the half-life in data set [1] is 7.8 h.

`Cc1cc(OC(C)c2ccccc2)ccc1C(C)N(O)C(N)=O` (stereo not drawn) [Example 4, N-hydroxy-N-[1-(4-(1-phenylethoxy)-2-methylphenyl)ethyl]urea] yielded an IC50 at 5-Lipoxygenase of 50 nM. Besides, the half-life in data set [1] is 1.2 h.

The compound `CC(c1ccc(OCc2ccc(F)cc2)cc1)N(O)C(N)=O` (stereo not drawn) [D] returned an IC50 against 5-Lipoxygenase of 400 nM. Also, the “Plasma Halflife” value in data set [1] is on record as “biphasic”.

At 5-Lipoxygenase, `Cc1cc(OCc2ccccc2)ccc1C(C)N(O)C(N)=O` (stereo not drawn) [B] displayed an IC50 of 400 nM. Further, the half-life in data set [1] was 0.6 h.

For the compound `CC(=O)N(O)C(C)c1ccc(OC(C)c2ccc(Cl)cc2)cc1` (stereo not drawn) [Example 33], at 5-Lipoxygenase, half-maximal inhibition (IC50) was put at 600 nM. For the same compound, the half-life in data set [1] was 5.7 h.

As for `Cc1cc(C(C)N(O)C(N)=O)ccc1OC(C)c1ccccc1` (stereo not drawn) [Example 3, N-hydroxy-N-[1-(4-(1-phenylethoxy)-3-methylphenyl)ethyl]urea], the IC50 against 5-Lipoxygenase was found to be 200 nM. Also, in data set [1], the half-life was 5.3 h.

For `CC(=O)N(O)C(C)c1ccc(OCc2ccc(Cl)cc2)cc1` (stereo not drawn) [E], on 5-Lipoxygenase (0.78 μM, read-out: 5-Lipoxygenase Inhibitory Activity (percent inhibition)), the inhibition at 0.78 µM is 91%. Moreover, the half-life in data set [1] is 1.4 h.

On to `Cc1cc(C(C)N(O)C(N)=O)ccc1OCc1ccccc1` (stereo not drawn) [A], for which the IC50 on 5-Lipoxygenase turned out to be 100 nM. For the same compound, the half-life in data set [1] was 2.7 h.
